BindingDB's records for doi:10.1016/j.bioorg.2016.01.001 (Indian Institute of Integrative Medicine, 2016)

Target: T1, Tyrosinase (Mus musculus, UniProt P11344)
T1 sequence (P11344 whole entry): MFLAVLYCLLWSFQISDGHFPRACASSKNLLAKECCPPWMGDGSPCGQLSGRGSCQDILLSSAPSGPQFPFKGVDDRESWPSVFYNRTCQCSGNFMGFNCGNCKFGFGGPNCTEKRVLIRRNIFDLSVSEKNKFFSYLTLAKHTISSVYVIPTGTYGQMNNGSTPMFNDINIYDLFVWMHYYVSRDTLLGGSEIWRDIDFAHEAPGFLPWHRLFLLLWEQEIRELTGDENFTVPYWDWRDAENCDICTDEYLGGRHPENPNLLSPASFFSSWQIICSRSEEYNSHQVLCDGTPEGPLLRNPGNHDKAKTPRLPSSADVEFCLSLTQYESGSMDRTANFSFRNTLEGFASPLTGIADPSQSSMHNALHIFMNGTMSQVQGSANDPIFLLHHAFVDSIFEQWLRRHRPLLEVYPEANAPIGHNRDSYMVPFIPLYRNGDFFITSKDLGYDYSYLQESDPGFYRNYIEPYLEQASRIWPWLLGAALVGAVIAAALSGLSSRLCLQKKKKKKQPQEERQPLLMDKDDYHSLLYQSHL
Assay: Tyrosinase Activity
Conditions: pH 6.8
Method: The reaction mixture contained 50 mM phosphate buffer, pH 6.8, 0.05% L-DOPA and the supernatant (tyrosinase). After incubation in the absence or presence of various stilbene derivatives (with varying concentrations ranging from 1 µg/mL to 100 µg/mL) at 37 °C for 20 min, dopachrome was monitored by measuring absorbanceat wavelength 492 nm by using a Molecular Devices microplate reader.

Question: For `COc1ccc(/C=C\c2cc(OC)c(OC)c(OC)c2)cc1` [1,2,3-Trimethoxy-5-[(Z)-2-(4-methoxy-phenyl)-vinyl]-benzene], which IC50 is on record?
Answer: The IC50 was over 500 µM.

Question: With `Oc1ccc(/C=C/c2cc(O)cc(O)c2)cc1` [5-[(E)-2-(4-hydroxyphenyl)ethenyl]benzene-1,3-diol] as the compound, how does the IC50 read?
Answer: Its IC50 is 10.8 µM.

Question: How did the IC50 turn out when `N#C/C(=C/c1ccc(O)cc1)c1ccc(O)cc1` [(E)-2,3-bis(4-Hydroxyphenyl)acrylonitrile (21)] was run?
Answer: The IC50 was 5.06 µM.

Question: `N#C/C(=C/c1cccnc1)c1ccc(O)cc1` [(E)-2-(4-Hydroxyphenyl)-3-(pyridin-3-yl)acrylonitrile (22)] was tested. Which IC50 did it give?
Answer: The IC50 was 270 µM.

Question: For `COc1ccc(/C=C(/C=O)c2ccccc2)cc1` [(E)-3-(4-Methoxyphenyl)-2-phenylpropenal (20)], which IC50 is on record?
Answer: The IC50 was 276 µM.

Question: `COC(=O)/C(=C/c1ccc(O)c(OC)c1)c1ccc(OC)cc1` [(E)-Methyl-3-(4-hydroxy-3-methoxyphenyl)-2-(4-methoxyphenyl)acrylate (19)] was tested. Which IC50 did it give?
Answer: The IC50 was over 500 µM.

Question: `Fc1c(F)c(F)c(/C=C\c2ccccc2)c(F)c1F` [Trans-1,2,3,4,5-Pentafluoro-6-styryl-benzene (14)] was tested. Which IC50 did it give?
Answer: The IC50 was over 500 µM.

Question: `C(=C\c1ccccc1)/c1ccccc1` [Trans-1,2-Diphenylethene (1)] was tested. Which IC50 did it give?
Answer: Its IC50 is over 500 µM.

Question: How did the IC50 turn out when `Fc1cc(F)cc(/C=C\c2ccccc2)c1` [Trans-1,3-Difluoro-5-styrylbenzene (12)] was run?
Answer: Its IC50 is 394 µM.

Question: With `Brc1ccc(/C=C\c2ccccc2)cc1` [Trans-1-Bromo-4-styrylbenzene (4)] as the compound, how does the IC50 read?
Answer: Its IC50 is 277 µM.

Question: Which IC50 does the source give for `Clc1ccc(/C=C\c2ccccc2)cc1` [Trans-1-Chloro-4-styrylbenzene (3)] here?
Answer: Its IC50 is 320 µM.

Question: How did the IC50 turn out when `Fc1ccc(/C=C\c2ccccc2)cc1` [Trans-1-Fluoro-4-styryl-benzene (2)] was run?
Answer: The IC50 was 79.4 µM.

Question: How did the IC50 turn out when `COc1ccc(/C=C\c2ccccc2)cc1` [Trans-1-Methoxy-4-styryl-benzene (9)] was run?
Answer: The IC50 was 433 µM.

Question: For `O=[N+]([O-])c1ccc(/C=C\c2ccccc2)cc1` [Trans-1-Nitro-4-styrylbenzene (5)], which IC50 is on record?
Answer: The IC50 was 361 µM.

Question: `COc1ccc(/C=C\c2ccc(F)cc2)cc1` [Trans-1-fluoro-4-(4-methoxystyryl)benzene (10)] was tested. Which IC50 did it give?
Answer: Its IC50 is 50 µM.

Question: `COc1ccc(/C=C\c2ccccc2)cc1Br` [Trans-2-Bromo-1-methoxy-4-styryl-benzene (11)] was tested. Which IC50 did it give?
Answer: The IC50 was 56.2 µM.

Question: Which IC50 does the source give for `Oc1ccc(/C=C\c2ccccc2)cc1` [Trans-4-Styryl-phenol (8)] here?
Answer: The IC50 was 17.4 µM.

Question: `N#Cc1ccc(/C=C\c2ccccc2)cc1` [Trans-4-Styrylbenzonitrile (6)] was tested. Which IC50 did it give?
Answer: The IC50 was 50 µM.

Question: `C(=C/c1c2ccccc2cc2ccccc12)/c1ccccc1` [Trans-9-Styryl-anthracene (15)] was tested. Which IC50 did it give?
Answer: Its IC50 is 166 µM.

Question: How did the IC50 turn out when `CC(=O)Oc1ccc(C=Cc2ccccc2)cc1` [Trans-Acetic acid 4-styryl-phenyl ester (7)] was run?
Answer: The IC50 was over 500 µM.
